Consider one compound from patent publication EP1452605A1, “Method for determining antiviral activity” (Universiteit Utrecht Holding B.V., priority 2003, dated 2004).

Data set [1] can be described thus: Cellular viability assay (MTT) of MDM. The data set is classed as cell-based. The settings on record: human, 7 days, read-out: TC50.
The test system of data set [2] is 41+215Y. Briefly: Drug susceptibility assay (cell-killing MTT assay) in MT-2 cells. The conditions noted are these: AZT-resistant strain 41+215Y, 5 days.
Procedure: (§3) The cells were maintained at 37°C, 5% CO2. One day prior to the experiments, the cells were passaged 1:1 in a concentration of 1 × 10^6 cells/ml.
(§4) The genes that contain the drug resistance mutations are excised from the clinical isolates and cloned into the genetic background of HXB2. Thus all tested HIV-1 strains have the same genetic background. […] This strain contains an insertion of two a.a. between codons 68 and 69 of RT as well as an a.a. change at codon 67.
(§5) After 5 days of incubation a cellular viability assay was performed as described above. In this case, the amount of formazan reflects the number of cells protected by the drug against killing by the virus and is used as a read out for drug susceptibility.
Data set [3] concerns HIV-1Ba-L. The data set is described as follows: HIV-1 infection of PBMC, p24-core antigen ELISA. The format is cell-based. As for the experimental part: (§1) To correct for the input virus, an extra control consisting of medium containing the same amount of input virus as added to the cells was included in the experiment. The amount of p24 in this control was subsequently subtracted from the p24 values of the samples in order to obtain the exact amount of p24 produced by the cells. p24-core antigen quantification by ELISA After 2 or 7 days incubation, samples of the supernatants were collected, inactivated by addition of Empigen (Calbiochem, La Jolla, CA, USA) and by heat inactivation at 56°C for 30 min. p24-core antigen concentration was determined by an enzyme linked immunoabsorbent assay (ELISA) (AMPAK™, DAKO, Cambridgeshire, UK) as described previously ^18,19. The optical density values were converted into p24 concentration (ng/ml) with the use of a calibration curve made by serial dilutions of recombinant p24 protein (NIBSC, UK) that was submitted to the same treatment as the samples.
(§2) To correct for the input virus, an extra control consisting of medium containing the same amount of input virus as added to the cells was included in the experiment. The amount of p24 in this control was subsequently subtracted from the p24 values of the samples in order to obtain the exact amount of p24 produced by the cells.
After 7 days incubation, samples of the supernatants were collected, inactivated by addition of Empigen (Calbiochem, La Jolla, CA, USA) and by heat inactivation at 56°C for 30 min. p24-core antigen concentration was determined by an ELISA (AMPAK™, DAKO, Cambridgeshire, UK) as described previously ^39,40. The optical density values were converted into p24 concentration (ng/ml) with the use of a calibration curve made by serial dilutions of recombinant p24 protein (NIBSC, UK) that was submitted to the same treatment as the samples.
as §2
After 7 days incubation, samples of the supernatants were collected, inactivated by addition of Empigen (Calbiochem, La Jolla, CA, USA) and by heat inactivation at 56°C for 30 min. p24-core antigen concentration was determined by an enzyme linked immunoabsorbent assay (ELISA) (AMPAK™, DAKO, Cambridgeshire, UK) as described previously 15,16. The optical density values were converted into p24 concentration (ng/ml) with the use of a calibration curve made by serial dilutions of recombinant p24 protein (NIBSC, UK) that was submitted to the same treatment as the samples.
(In general: In an ELISA, binding on a coated surface is turned into a signal by an enzyme label.)

Data set [4] deals with chronically HIV-1-infected U1 cell line. Briefly: Infection model with the chronically HIV-1-infected monocytic cell line U1, p24 ELISA. The format is cell-based. The settings on record: PMA (100 ng/ml) stimulated, APHS 3, 10 and 30 µM, 2 days. On the procedure: U1 cells (AIDS Reagents, Rockville, […]) were incubated with 100 ng/ml phorbol myristate acetate (PMA; Sigma) or with medium (negative control) for 30 min. Afterwards the cells were washed and seeded in a concentration of 1 × 10^6 cells/ml in RPMI 1640 medium containing 10% FCS and 10 µg/ml gentamycin either with increasing concentrations of APHS or with 30 mM N-acetyl-L-cysteine (NAC; Sigma), which served as a positive control. After 2 days of incubation, samples of the supernatant were collected, inactivated by addition of Empigen and by 30 min incubation at 56°C. The concentration of p24 was determined by ELISA (AMPAK™) as described above.

Data set [5] has as its system several HIV-1 strains (macrophage-tropic and/or lymphocytotropic). Briefly: HIV-1 replication in primary cells (summary over strains and cell types). The data set is classed as cell-based. The conditions noted are these: Human immunodeficiency virus 1, read-out: 50% inhibitory concentration values. As for the experimental part:
as §1

Data set [6] relates to HIV-1Ba-L. Briefly: Combination of HIV-1 inhibitors in HIV-1Ba-L infected PBMC (checker board, CalcuSyn). The conditions noted are these: Human immunodeficiency virus 1, PBMC.
Procedure: After 7 days of incubation, p24 antigen in culture supernatant was quantified by ELISA and cellular viability was assessed by a cytotoxicity assay. fa was calculated for each drug combination after p24 quantification. Using the CalcuSyn program, dose-effect curves were plotted for each drug combination, i.e., each dose was plotted against the corresponding fa value. […] CI values were calculated using the mutually nonexclusive assumption.
Data set [7] relates to MT2 cells.
Procedure: After 5 days of incubation a cellular viability assay was performed as described above.
Data set [8] has as its system HXB2. The data set is described as follows: Drug susceptibility assay (cell-killing MTT assay) in MT-2 cells. The conditions noted are these: Human immunodeficiency virus 1, HXB2, MT2, 120 h.
Procedure: as §3, §4, §5
For data set [9], the system named is 4602. The description is as above. The conditions noted are these: Human immunodeficiency virus 1, MT2, 120 h.
Procedure: as §3, §4, §5
In data set [10] the test system is HEp-2 cells. The format is cell-based, Human. As for the experimental part:
HEp-2 cells were seeded in 96-wells plates in the presence of APHS for 4, 5 and 6 days. Concentrations of HEp-2 cells were determined by microscopic observation in order to have a confluent monolayer at the day of measurement. Afterwards a cellular viability assay was performed on these cells.

The target in data set [11] is HIV-1 RT (Human immunodeficiency virus type 1 group M subtype B, UniProt P04585). Briefly: Cell-free RT assay (primer extension). The data set is classed as biochemical. On the procedure:
The HIV-1 RNA template (positions +1 to +368, with +1 being the capped G residue) was synthesized in vitro with T7 RNA polymerase as described previously ^27. In the reverse transcription assay, 10 ng of the RNA template was incubated with 1.5 µg calf liver tRNA ([…] total tRNA, of which approximately 1.2 pmol tRNA^lys3, Boehringer) or 20 ng of a DNA primer complementary to the primer binding site (PBS) (positions +182 to +202) in 12 µl annealing buffer (83 mM Tris-HCl pH 7.5, 125 mM KCl) at 85 °C for 2 min and 65 °C for 10 min, followed by cooling to room temperature over a 1h period. Reverse transcription was initiated by the addition of 6 µl RT buffer (9 mM MgCl2, 30 mM DTT, 150 µg/ml actinomycine D, 30 µM dATP, dGTP and dTTP and 1.5 µM dCTP), 0.5 µl [α-^32P]dCTP and 0.5 U HIV-1 RT (MRC) in the presence or absence of APHS (10, 30, 300 and 1000 µM) or 10% ethanol. The reaction was incubated for 30 min at 37 °C. The cDNA product was precipitated in 0.3 M sodiumacetate, pH 5.2 and 80% ethanol at-20°C, dissolved in formamide loading buffer and analyzed on a denaturing 6% polyacrylamide-urea sequencing gel.

On to `CCCCC#CCSc1ccccc1OC(C)=O` [APHS, o-(acetoxyphenyl)hept-2-ynyl sulfide], for which the CC50 at 168 h in [1] was 235 µM. The IC50 in data set [2] was 2.1 ± 1 µM; in [2] (Human immunodeficiency virus 1, MT2, 120 h), 2 µM; in [3] (Human immunodeficiency virus 1, 168 h, PBMC infected with HIV-1Ba-L, p24 antigen after 7 days, read-out: IC50), 6 µM; in [5], roughly 10 µM; in data set [6] (168 h, read-out: IC50 Alone APHS, APHS alone, PBMC, HIV-1Ba-L, 7 days, one value per experiment with the named partner drug) it was 10 to 15 µM; in data set [6] (read-out: IC50 of APHS alone (mean), mean over the combination experiments), 13 µM. Besides, the IC50 is 5 µM in [6] (read-out: IC50 of APHS in combination with RTI or PI (mean), mean over the combination experiments); 10 µM in data set [8]; 5 µM in [9]. In addition, in data set [3] (Human immunodeficiency virus 1, 30 µM APHS, PBMC, read-out: inhibit HIV-1Ba-L replication), the inhibition at 30 µM turned out to be 80%. The “HIV-1 production (p24) by U1 cells” value in data set [4] was “not capable of inhibiting HIV-1 production”. In data set [7], the “toxicity for MT2 cells” value was “did not show any significant toxicity”. Further, in [10], the “cellular viability significantly decreased at concentrations above” value is given as “above 10 µM”. Further, the “cytotoxicity for HEp-2 cells” value in data set [10] is recorded as “not cytotoxic”. For the same compound, the “RT activity in the primer extension assay” value in [11] is given as “no inhibition of RT activity”. The “amount of reverse transcription product” value in [11] (1000 µM APHS, effect probably due to the ethanol in the sample) was “decreased the amount of reverse transcription product”. Besides, the “cDNA formation” value in data set [11] (APHS 10 to 300 µM) is on record as “did not affect cDNA formation”.
